The test system of experiment [1] is CHO cells. Type of experiment: cell-based. The following applies: for intracellular Ca2+ levels, maximal response (ΔF/F): peptide 1 μM, vs. HBSS, at least five wells. As to the method: CHO cells were plated at 20.000 cells/well into black walled, clear bottom 96-well plate (Corning, Germany) and cultured one day up to 80–90% of confluence. […] TLQP-21, TLQP-62, TLQP-8, HHPD-41, HFHH-10, and LRPS-21 were diluted in HBSS solution and injected into the wells by an automated injector system. […] Depletion of Ca^2+ from the ER leads to Ca^2+ entry from outside the cell by activation of Store-Operated Channels (SOCs).

Experiment [2] relates to CHO cells. The following applies: ref Cassina et al., 2013; cited from earlier work. The source says: Among several bioactive peptides derived from VGF, TLQP-21 (VGF^556-576) is a 21 amino acid peptide which has been immunopurified from brain tissues ([Bartolomucci et al., 2006]). Despite many efforts to characterize the physiological effects of TLQP-21, little is known about its molecular targets. Nonetheless, adipocytes express a high affinity binding site for TLQP-21 and in these cells TLQP-21 stimulates a pro-lipolytic effect ([Possenti et al., 2012]).

Experiment [3] has as its system TLQP-21 binding sites on CHO cell membranes. Nature of the experiment: TLQP-21 binding assay with [125I]-YATL-23 on crude CHO cell membranes. The following applies: competition with 1 nM [125I]-YATL-23, competitor 10 pM to 0.1 μM. As to the method:
Binding of TLQP-21 to crude membranes (30,000 × g pellet) obtained from CHO cells was carried out using [^125I]-YATL-23 as ligand. YATL-23 was radioiodinated (specific activity, 2000 Ci/mmol) using the lactoperoxidase method ([Muccioli et al., 1998]; [Muccioli et al., 2001]) by Perkin Elmer (Milan, Italy) and purified by reverse phase high-performance liquid chromatography. For the single point binding assay, cell membranes (corresponding to 100 μg membrane protein) were incubated in triplicate at 23°C, unless otherwise noted, for 4 h under constant shaking with 0.5 nM [^125I]-YATL-23 in a final volume of 0.5 ml assay buffer (50 mM Tris, 2.5 mM EGTA, 0.002% bacitracin, 0.1% bovine serum albumin, titrated to a final pH of 7.4 with HCl). Non-specific binding was measured in parallel incubations with 1 μM unlabelled YATL-23 to displace the radioligand. Similar results were obtained using TLQP-21 to displace the radioligand. The binding reaction was terminated by the addition of ice-cold assay buffer, followed by rapid filtration through Whatman GF/B filters as previously reported ([Muccioli et al., 1998]) and the radioactivity bound to membranes was measured by a Packard auto-γ-counter. Specific binding-values were calculated as the difference obtained subtracting non-specific from total binding. Specific binding was expressed as a percentage of the total radioactivity added. […]

The mark [4] stands for this setting: inhibitor 10 μM, 20 min pretreatment, then 1 μM TLQP-21.

Read-outs that look alike come from different tables or passages of the source.

The text below walks through data of PMC5371653, “Pharmacological and Biochemical Characterization of TLQP-21 Activation of a Binding Site on CHO Cells” (Frontiers in Pharmacology, 2017).

Take `NCCOB(c1ccccc1)c1ccccc1` [2-APB, 2-Aminoethyl diphenylborinate]: in experiment [1] (inhibitor 75 μM, 15 min preincubation, then 1 μM TLQP-21), the “decrement of TLQP-21 intracellular Ca2+ mobilization” value is recorded as “about 79%”.

For the compound `O=C(O)CN(CCOCCOCCN(CC(=O)O)CC(=O)O)CC(=O)O` [EGTA], the “decrement in TLQP-21-mediated intracellular Ca2+ mobilization” value in experiment [1] (chelator 1 mM, 30 min pretreatment, then 1 μM TLQP-21) is given as roughly 45%.

As to `COc1ccc(CCCOC(Cn2ccnc2)c2ccc(OC)cc2)cc1` (stereo not shown) [SKF-96365], the “decrement in TLQP-21-mediated intracellular Ca2+ mobilization” value in experiment [1] (setting [4]) is “about 36%”.

Turning to `C/C=C(/C)C(=O)O[C@H]1C(C)=C2[C@H]([C@@H]1OC(=O)CCCCCCC)[C@@](C)(OC(C)=O)C[C@H](OC(=O)CCC)[C@@]1(O)[C@H]2OC(=O)[C@@]1(C)O` [TG, thapsigargin], in experiment [1] (inhibitor 2 μM, 20 min preincubation, then 1 μM TLQP-21), the “reduction of TLQP-21-mediated increase of intracellular Ca2+” value is on record as 56%.

Consider `CC(C)C[C@H](NC(=O)[C@@H](N)[C@@H](C)O)C(=O)N[C@@H](CCC(N)=O)C(=O)N1CCC[C@H]1C(=O)N1CCC[C@H]1C(=O)N[C@@H](C)C(=O)N[C@@H](CO)C(=O)N[C@@H](CO)C(=O)N[C@@H](CCCNC(=N)N)C(=O)N[C@@H](CCCNC(=N)N)C(=O)N[C@@H](CCCNC(=N)N)C(=O)N[C@@H](Cc1c[nH]cn1)C(=O)N[C@@H](Cc1ccccc1)C(=O)N[C@@H](Cc1c[nH]cn1)C(=O)N[C@@H](Cc1c[nH]cn1)C(=O)N[C@@H](C)C(=O)N[C@@H](CC(C)C)C(=O)N1CCC[C@H]1C(=O)N1CCC[C@H]1C(=O)N[C@@H](C)C(=O)N[C@@H](CCCNC(=N)N)C(=O)O` [TLQP-21], for which, in experiment [1] (CHO cells, stated as 1 μM being close to the EC50, read-out: EC50 of intracellular Ca2+ mobilization), the EC50 (commonly the concentration that produces a half-maximal response) is roughly 1 µM.

With `COc1ccc2c(c1)CC[C@@H]1[C@@H]2CC[C@]2(C)[C@@H](NCCCCCCN3C(=O)C=CC3=O)CC[C@@H]12` [U73122], the “reduction of TLQP-21 stimulation of intracellular Ca2+ mobilization” value in experiment [1] (inhibitor 10 μM, 10 min preincubation, then 1 μM TLQP-21) is “about 82%”.

Consider `Cc1nnsc1C(=O)Nc1ccc(-n2nc(C(F)(F)F)cc2C(F)(F)F)cc1` [YM-58483], for which the “decrement in TLQP-21-mediated intracellular Ca2+ mobilization” value in experiment [1] (setting [4]) is recorded as roughly 27%.

As for Cyclosporine A [CsA], the “basal levels of intracellular Ca2+” value in experiment [1] (2 μM, before TLQP-21) is listed as “did not modify”. The “effect on TLQP-21 Ca2+ stimulation” value in experiment [1] (inhibitor 2 μM, 15 min preincubation, then 1 μM TLQP-21) is “did not affect”.

Take “HFHHALPPAR [HFHH-10, 10 amino acids at the C-terminal of TLQP-21]”: the “intracellular Ca2+ levels, maximal response (ΔF/F)” value (from here on “intracellular Ca2+ levels … (ΔF/F)”) in experiment [1] (repeated at least three times) was “effectively stimulated”.

On to “HHPDLEAQARRAQEEADAEERRLQEQEELENYIEHVLLHRP [HHPD-41, VGF-derived peptide from processing of TLQP-62]”, for which, in experiment [1] (repeated at least three times), the “intracellular Ca2+ levels … (ΔF/F)” value is “ineffective”.

“LRPSHTRPAHQSFARP LHRPA [LRPS-21, scrambled control peptide with the same amino acid residues as TLQP-21]”: the “stimulation of intracellular Ca2+ in CHO cells” value in experiment [2] is reported as “did not stimulate”. For the same compound, in experiment [1] (peptide 1 nM–10 μM, TLQP-21 significant (P < 0.05) at 0.1 μM–10 μM, at least six wells, repeated at least three times), the “intracellular Ca2+ levels, maximal response” value is reported as “did not stimulate”. In addition, in experiment [3], the “inhibition of [125I]-YATL-23 binding to CHO membranes” value is “not inhibited”.

On to “TLQPPASS [TLQP-8, 8 amino acids at the N-terminal of TLQP-21]”, for which, in experiment [1] (repeated at least three times), the “intracellular Ca2+ levels … (ΔF/F)” value was “slight and non-significant increase”.

Regarding “TLQPPASSRRRHFHHALPPARHHPDLEAQARRAQEEADAEERRLQEQEELENYIEHVLLHRP [TLQP-62]”, in experiment [1] (repeated at least three times), the “intracellular Ca2+ levels … (ΔF/F)” value is recorded as “failed to stimulate any significant increase”.
